Tested on: lateral aspect of the hippocampus
Test: MRgFUS + microbubbles + QA lesion study in rats, followed by T2-TSE MR imaging
Assay type: in vivo, Male Sprague Dawley rats
Settings: rat, QA 0.06 mmol (1 ml of 10 mg/ml) intraperitoneally once per day for 4 days beginning 2 days prior to insonification, saline-treated animals normal
Method: An illustrative example is described below, concerning a study of techniques herein as applied to a particular subject. Male Sprague Dawley rats (e.g., 5-6 weeks of age (120-150 g)), were divided into two groups receiving the following treatments: 1) MRgFUS+microbubbles+saline (n=5), or 2) MRgFUS+microbubbles+QA (n=5). QA was dissolved in 0.1M PBS (10 mg/ml). Either 1 ml of the QA solution (0.06 mmol) or 1 ml of saline was injected intraperitoneally once per day for 4 days beginning 2 days prior to insonification. Phospholipid encapsulated microbubbles (mean size: ˜5 um; concentration: 6×10^8 microbubbles/ml; volume injected: 300 μl/kg) and Gadodiamide contrast (Omniscan, 0.2 ml/kg) were delivered via the tail vein just prior to sonification.
An acoustic energy delivery system was configured in a manner similar to that discussed above as in system 100 and in this illustrative example, the system included an MR-compatible, pre-focused, 8-element annular array comprising 1.5 MHz transducers 111 (e.g., having spherical radius=20 mm±2 mm, active diameter=25 mm [focal ratio=0.8]; an ultrasonic transducer with 80% electric-acoustic efficiency, which was connected to a phased array generator and RF power amplifier. An MR-compatible motorized positioning stage was used to move the transducer in the rostral-caudal and medial-lateral directions. […]

O=C(O)c1cccnc1C(=O)O [QA, quinolinic acid]
T2-TSE imaging appearance of brain, 24 hours post-insonification (24 hours post-insonification): exhibited hyperintensity in the area of insonification
T2-TSE imaging appearance of brain, 7 days post-insonification (7 days post-insonification, no evidence of a lesion): exhibited signs of damage in the region of insonification

From patent US11229810B2, “Methods and systems for producing neuronal lesions using magnetic resonance and acoustic energy” (University of Virginia Patent Foundation, priority 2017, dated 2022)
